Data as given in patent US20150037351A1, “NOVEL THERAPEUTIC TARGET FOR THE PREVENTION OF TUMOUR METASTASIS” (MAX-PLANCK-GESELLSCHAFT ZUR FORDERUNG DER WISSENSCHAFTEN …, priority 2012, published 2015).

Assays:
MS1 endothelial cells = assay: morphology of the endothelial monolayer (VE-cadherin/F-actin staining, discontinuous cellular junctions); type: cell-based, mouse
Description: (§1) The permeability assay was performed as described for the transwell assay with some modifications. Briefly, MS1 cells were cultured on transwell filters and the supernatant of platelets alone or platelets stimulated with tumour cells was mixed 1:1 with TB containing 2 mg/ml 70 kDa FITC-DX of which 50 μl were added to the upper compartment in the absence or presence of apyrase (20 U/ml). 250 μl TB were added to the lower compartment. After 90 min, the amount of passed FITC-DX to the lower compartment was measured (FlexStation3, Molecular Devices). For visualization of changes in the endothelial barrier, MS1 cells were stimulated for 1 h with supernatants from tumour cells alone or from tumour cells after stimulation with platelets in the absence or presence of apyrase (20 U/ml). Cells were further processed for staining and imaging
Cells or tissues were fixed with 4% para-formaldehyde. Tissues were further cryopreserved in 30% sucrose (Sigma), embedded in OCT (Fisher Scientific), and cryosectioned at 16 μm. Cells or sections were stained with rat anti-VE-Cadherin (BD Pharmingen) and Alexa Fluor (AF) 594- (Molecular Probes) or Cy5- (Dianova) conjugated secondary antibodies. DAPI (Sigma) was used to stain cell nuclei, and AF488-conjugated phalloidin (Molecular Probes) to stain F-actin. Images were acquired using a Leica SP5 confocal microscope and analyzed using ImageJ (NIH).

[1] = test system: MS1 endothelial cell layer; assay: endothelial barrier permeability assay (FITC-dextran); type: cell-based, mouse
Description: as §1

B16 cells = assay: transwell assay: tumour cell transmigration through an endothelial cell layer; type: cell-based, mouse
Description: MS1 cells (8×10^3 at seeding in 50 μl) or HUVEC (6×10^3 at seeding in 50 μl) were cultured for 2 days on 96-transwell plates with polyester membranes of 8-μm pore size (Corning) with medium changes every day. For knockdown experiments, 4×10^5 MS1 cells were transfected using Amaxa Nucleofector Kit V with different sets of siRNA against the P2Y2 receptor (Qiagen) and 1.2×10^4 cells in 50 μl were seeded to the up-per compartment. Where indicated, MS1 cells were pre-incubated with 5-BDBD (1 μM) or MRS2500 (100 nM) for 30 min. Before the experiment, exemplary wells of each condition were visually checked by calcein-AM staining of the endothelial monolayer and only plates with 100% confluency were used. For transmigration, the medium from the upper compartment was removed and 50 μl of a 1:1 mixture of platelets (2×10^8/ml) with calcein-AM-labeled tumour cells (8×10^5/ml) in TB was added to the upper compartment alone or with flurbiprofen (100 nM), ketanserin (3 nM) or apyrase (20 […] (10 μM) and 2MeSADP (10 μM) were added in the absence of platelets. For supernatant experiments, human platelets (5×10^7/ml) or mouse platelets (2×10^8/ml) were incubated for 30 min at 37° C. alone or with tumour cells (1.6×10^6/ml) and centrifuged at 350×g for 10 min. The supernatant was mixed 1:1 with TB (for MS1 cells) or cell culture medium (for HUVECs) containing calcein-AM-labeled tumour cells (8×10^5/ml) and 50 μl were added to the upper compartment. In all experiments, 250 μl TB or culture medium were added to the lower compartment, and tumour cells were allowed to transmigrate over night. On the next day, the non-transmigrated tumour cells from the upper compartment were removed and only the transmigrated tumour cells on the lower side of the filter or the bottom of the transwell were imaged (Zeiss Axio Observer.Z1 and Olympus IX81) and quantified with ImageJ (NIH). Each experiment was performed at least 3 times with a minimum of 5 wells per experiment.

P2Y2 receptors [2] = target: T1, P2Y2 receptors (Homo sapiens, UniProt P41231); settings: cited from earlier work
P2Y2 receptors [3] = target: T1, P2Y2 receptors; settings: natural ligands of the human P2Y2 receptor; cited from earlier work
[4] = B16 cells on MS1 endothelial cells with platelets, flurbiprofen 100 nM, ketanserin 3 nM, apyrase 20 U/ml

T1 sequence (P41231 whole entry): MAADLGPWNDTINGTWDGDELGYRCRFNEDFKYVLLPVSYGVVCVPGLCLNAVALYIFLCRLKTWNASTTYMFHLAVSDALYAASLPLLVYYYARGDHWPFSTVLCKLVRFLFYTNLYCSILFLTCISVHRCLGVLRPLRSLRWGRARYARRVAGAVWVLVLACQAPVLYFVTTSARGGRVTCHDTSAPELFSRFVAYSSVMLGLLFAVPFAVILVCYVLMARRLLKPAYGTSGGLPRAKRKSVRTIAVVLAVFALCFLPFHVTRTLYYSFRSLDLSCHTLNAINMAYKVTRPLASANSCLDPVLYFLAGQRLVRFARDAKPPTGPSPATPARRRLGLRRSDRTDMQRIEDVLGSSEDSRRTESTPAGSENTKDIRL

Compound: apyrase
- loss of tight interactions of endothelial cells in the monolayer induced by platelets with tumour cells (MS1 endothelial cells; apyrase 20 U/ml, 1 h): blocked
- diffusion of FITC-labeled dextran over an endothelial cell layer enhanced by platelets with tumour cells ([1]; apyrase 20 U/ml, 90 min): blocked
- platelet-dependent facilitation of tumour cell transmigration (B16 cells; [4]): ablated

Compound: O=c1ccn([C@@H]2O[C@H](COP(=O)(O)OP(=O)(O)OP(=O)(O)O)[C@@H](O)[C@H]2O)c(=O)[nH]1 [UTP]
- agonist efficacy at P2Y2 receptors in comparison to ATP (P2Y2 receptors [2]): full agonist

Compound: O=C(c1ccc(F)cc1)C1CCN(CCn2c(=O)[nH]c3ccccc3c2=O)CC1 [ketanserin]
- platelet-dependent facilitation of tumour cell transmigration (B16 cells; [4]): no effect

Compound: Nc1ncnc2c1ncn2[C@@H]1O[C@H](COP(=O)(O)OP(=O)(O)O)[C@@H](O)[C@H]1O [ADP]
- agonist efficacy at P2Y2 receptors in comparison to ATP (P2Y2 receptors [2]): less effective agonist
- EC50 (P2Y2 receptors [3]): considerably lower potency

Compound: Nc1ncnc2c1ncn2[C@@H]1O[C@H](COP(=O)(O)OP(=O)(O)OP(=O)(O)O)[C@@H](O)[C@H]1O [ATP]
- tight interendothelial junctions (MS1 endothelial cells; ATP 10 μM, 30 min, MS1 cells): loss
- endothelial permeability ([1]; ATP 10 μM, MS1 monolayer, FITC-dextran): increase

Compound: CC(C(=O)O)c1ccc(-c2ccccc2)c(F)c1 (stereo not shown) [flurbiprofen]
- platelet-dependent facilitation of tumour cell transmigration (B16 cells; 0.1 µM): no effect
